Key:
macrophage NADPH oxidase = assay: Macrophage NADPH oxidase activity after LPS, lucigenin chemiluminescence; assay type: cell-based, human; conditions: LPS alone 3,310,000±1,670,000
Protocol: THP-1 cell culture was pretreated for 1 hour with the indicated concentrations of DM before stimulation with 100 ng/mL LPS. Lysis buffer was added to the cells and centrifuged. The supernatant was discarded and the pellet was resuspended. NADPH oxidase activity was measured by mixing 30 μg protein, 5 μM lucigenin, and 100 μM NADPH. Chemiluminescence was determined every 10 seconds for 15 minutes. Data are presented as mean±SD (n=8-15). ***P<0.001 compared with the LPS-treated cells.

[1] = tested on: superoxide production in left carotid arteries; assay: Superoxide in left common carotid artery of apoE-deficient mice, DHE staining; assay type: in vivo
Protocol: Representative photomicrographs of the […] sections in apoE-deficient mice were treated daily with water only (A) or DM 5 mg/kg/day (B), 10 mg/kg/day (C), 20 mg/kg/day (D) or 40 mg/kg/day (E) for 10 weeks. […] The results are representative of 4 independent experiments with 6-8 independently analyzed mice/group. (bar=50 μm)
Having established the DM inhibitory effect on macrophage activation and NADPH oxidase, we next examined the functional consequences of which in vivo. […] Sections of left carotid arteries from the mice were stained with DHE and then imaged with a laser scanning confocal microscope.

[2] = tested on: MCP-1 release from THP-1 cells after LPS stimulation; assay: LPS-induced MCP-1 release in THP-1 macrophage culture (ELISA); assay type: cell-based, human; conditions: 1 μM pretreatment, LPS alone 9.22±1.17
Protocol: THP-1 cells were grown in the RPMI-1640 medium containing 10% fetal bovine serum at 37° C. in 5% CO2. The cells were differentiated to macrophages after treatment of the culture with 100 nM PMA for 24 hours. The cell suspension (5×10^5) was added in 0.5 mL into each well of the tissue culture plates. […] LPS was dissolved in sterile water and stored at −70° C. in aliquots. LDL was isolated from human endotoxin-free heparin plasma and was oxidized using CuSO4. In brief, LDL (1 mL, 1 mg/mL) was dialyzed in 500 mL phosphate-buffered saline (PBS, pH 7.4) overnight. Copper sulfate was added to a final concentration of 5 μM, and the LDL was allowed to oxidize at room temperature for 24 hours.
The supernatants were harvested and the TNF-α, IL-6, and MCP-1 levels were determined by ELISA. Superoxide production in the THP-1 cell culture was measured by lucigenin-enhanced chemiluminescence as described previously (Khadour F H, Panas D, Ferdinandy P, et al. Am J Physiol Heart Circ Physiol, 28:H1108-15 2002). LPS-treated THP-1 cells were treated with PBS containing 1.25 mM lucigenin, and counts were obtained for a 10-minute period in a luminometer (Berthold Technologies, Germany) as relative light units (RLU) emitted. Background counts determined in cell-free preparations were subtracted. […]

plasma TNF-α = assay: Plasma TNF-α in LPS-treated FVB mice (ELISA); assay type: in vivo; conditions: 6 h, LPS only 576.1±43.6
Protocol: (§1) All mice then received 20 mg/kg LPS by intraperitoneal injection. Blood samples were obtained at 6 hours after LPS injection from a catheter placed in the left carotid artery. Blood samples were centrifuged, and the plasma TNF-α levels were measured by ELISA. Lungs were harvested from the animals 6 hours after LPS injection in each group as described above. The tissues were fixed in 4% paraformaldehyde and embedded in paraffin for histopathological examination. The presence of inflammatory cells in lungs was determined by immunofluorescence. The sections were incubated with rat monoclonal antibody against mouse CD45, a leukocyte common antigen (1:50 dilution, Pharmingen). After washing, fluorescein isothiocyanate-conjugated sheep […] immunoglobulin (Amersham Pharmacia Biotech) was applied as a secondary antibody. […] The total CD45-positive cell number was counted in five randomly selected sections under high power field magnification (400×) for each mouse. Oxidative fluorescent microtopography with the oxidative fluorescent dye dihydroethidium (DHE) was used to evaluate the in situ production of superoxide in aorta. Aortas were harvested from the animals at 6 hours after LPS injection in each group as described above. Unfixed frozen ring segments were cut into 30-μm-thick sections and placed on a glass slide. DHE (10 μM) was topically applied to each tissue section and a cover slip was applied. Slides were incubated in a light-protected humidified chamber at 37° C. for 30 minutes. Fluorescence was detected with a laser scanning confocal microscope (Leica Microsystems, Germany) with excitation at 488-nm and detection at 585-nm using a long-pass filter.

[3] = tested on: CD45-positive cells in lungs; assay: Pulmonary inflammatory cell (CD45-positive) infiltration in LPS-treated mice, immunofluorescence; assay type: in vivo; conditions: LPS only 103±16
Protocol: as §1

[4] = tested on: superoxide production in aorta; assay: Superoxide in aorta of LPS-treated mice, DHE oxidative fluorescent microtopography; assay type: in vivo
Protocol: as §1, with “Aortas were harvested from the animals at 6 hours after LPS injection in each group as described above. Unfixed frozen ring segments were cut into 30-μm-thick sections and placed on a glass slide. DHE (10 μM) was topically applied to each tissue section and a cover slip was applied. Slides were incubated in a light-protected humidified chamber at 37° C. for 30 minutes.” left out

Q: For `COc1ccc2c(c1)[C@]13CCCC[C@@H]1[C@H](C2)N(C)CC3` [DM, (+)-3-methoxy-17-methyl-9α,13α,14α-morphinan], which NADPH oxidase activity (macrophage NADPH oxidase; DM 0.01 μM pretreatment) is on record?
A: 1,360,000±860,000 RLU/15 min/mL

Q: What about the NADPH oxidase activity (macrophage NADPH oxidase; DM 0.1 μM pretreatment) of the same compound?
A: 1,280,000±540,000 RLU/15 min/mL

Q: What about the NADPH oxidase activity (macrophage NADPH oxidase; DM 1 μM pretreatment) of the same compound?
A: 1,400,000±730,000 RLU/15 min/mL

Q: And the “DHE staining (superoxide), FIG. 14” value ([1]; DM 5, 10, 20 or 40 mg/kg/day for 10 weeks vs water only)?
A: staining was much more reduced

Q: And the “DHE fluorescence intensity in sections of left carotid arteries (superoxide)” value ([1]; DM 10, 20, and 40 mg/kg/day for 10 weeks)?
A: significantly reduced the increase of fluorescence intensity

Q: `C=CCN1CC[C@]23c4c5ccc(O)c4O[C@H]2C(=O)CC[C@@]3(O)[C@H]1C5` [Naloxone, 17-allyl-4,5α-epoxy-3,14-dihydroxymorphinan-6-one] was tested. Which MCP-1 in medium [2] did it give?
A: 6.16 ± 0.16 ng/mL

Q: What about the “plasma TNF-α level” value (plasma TNF-α; 10 mg/kg i.p. before 20 mg/kg LPS) of the same compound?
A: 452.9 ± 55.0 pg/mL

Q: And the “plasma TNF-α level” value (plasma TNF-α; 20 mg/kg i.p. before 20 mg/kg LPS)?
A: 251.9 ± 59.6 pg/mL

Q: What about the “plasma TNF-α level” value (plasma TNF-α; 25 mg/kg i.p. before 20 mg/kg LPS) of the same compound?
A: 288.0 ± 33.9 pg/mL

Q: What about the “infiltration of inflammatory cells in the lungs (CD45-positive cell number)” value (from here on “infiltration of inflammatory cells”) ([3]; 10 mg/kg i.p. before LPS) of the same compound?
A: 74±10

Q: And the “infiltration of inflammatory cells” value ([3]; 20 mg/kg i.p. before LPS)?
A: 58±15

Q: And the “infiltration of inflammatory cells” value ([3]; 25 mg/kg i.p. before LPS)?
A: 62±12

Q: What about the “DHE staining of aorta (superoxide), FIG. 5” value ([4]; 20 mg/kg naloxone pretreatment 1 hour before LPS) of the same compound?
A: staining was much more reduced

Q: What about the “DHE fluorescence intensity in aortic sections (superoxide)” value ([4]; 10, 20, and 25 mg/kg pretreatment, LPS-treated mice) of the same compound?
A: significantly reduced the increase of fluorescence intensity

From patent publication US7820689B2, “Methods and compositions for preventing or treating cardiovascular disease” (priority 2006, dated 2010)
